From patent publication US8575103B2, “Peptides and methods for inhibiting G alpha protein signaling” (The Board of Trustees of the University of Illinois, priority 2009, dated 2013) come the findings set out here.

“Also recorded” adds a separate entry of the source. Where no end group is shown, it is not given here. The star is where a group is joined. Myristoyl = CCCCCCCCCCCCCC(=O)*

One assay has as its system CD1 mice. The experiment in a line: bleeding time in mice after intravenous administration. The class given is in vivo. Conditions: 100 μl of 3.7 mM intravenously via tail vein, tail cut five minutes after administration. On the procedure:
Briefly, CD1 mice (25 grams) were anesthetized with sodium pentobarbital, and either 100 μl of vehicle or 100 μl of a vehicle solution containing 3.7 mM of each peptide or aspirin was administered intravenously via the tail vein. Five minutes following administration, the tail was cut 0.5 cm from the tip and immersed in PBS buffer (pH 7.4; 37EC). Cessation of bleeding was observed visually and the total bleeding time was recorded.

The next assay addresses T1, kindlin-3 (Homo sapiens, UniProt Q86UX7).
T1 construct: also purified whole talin (220 kD), the talin head domain (47 kD) and kindlin 3 (72 kD); endogenous in cells; host or cells: solubilized human platelets
The experiment in a line: peptide affinity column with solubilized human platelets, western blot for kindlin-3. The following applies: immunoblot, kindlin 3 (72 kD). The class given is binding. From the text: (§1) On this basis, subsequent experiments examined whether G13SR2pep peptide (SEQ ID NO:5) does indeed directly interact with α11bβ3 and/or one of its associated proteins in human platelets. In this respect, platelet α11bβ3 integrin is known to exist in a complex with two cytoplasmic proteins, i.e., talin and kindlin-3 (Tadokoro, et al. (2003) Science 302:103-6; Moser, et al. (2008) Nature Med. 14:325-30). To determine whether G13SR2pep, (SEQ ID NO:5) interacts with any of these proteins (or with the entire α11bβ3, talin, kindlin-3 complex), peptide affinity columns using G13SR2pep (SEQ ID NO:5) were employed. The affinity purified protein(s) from solubilized human platelets that specifically bound to the G13SR2pep peptide were eluted, and analyzed by western blot for α11bβ3 integrin, talin and kindlin-3. In similar experiments, the eluates from a peptide column using the G13SR2-Random Peptide (SEQ ID NO:9) were also analyzed. Immunoblot analysis with the α11bβ3 antibodies (Abcam) detected two bands, one at 130 kD and the other at 115 kD in solubilized human platelets as well as in the elution fraction obtained from the G13SR2pep (SEQ ID NO:5) affinity column. […] This was supported by similar experiments using talin antibodies and the kindlin 3 antibody (Abcam).

Assay [1] addresses T2, α11bβ3 integrin (Homo sapiens, UniProt P05106+P08514+Q9Y490).
T2 construct: detected two bands, one at 130 kD and the other at 115 kD in solubilized human platelets; endogenous in cells; host or cells: solubilized human platelets
The experiment in a line: peptide affinity column with solubilized human platelets, western blot for α11bβ3. The class given is binding. Conditions: immunoblot, bands at 130 kD and 115 kD.
Excerpt: as §1

For a further assay, the target named is T3, talin (Homo sapiens, UniProt Q9Y490).
T3 construct: also purified whole talin (220 kD), the talin head domain (47 kD) and kindlin 3 (72 kD); endogenous in cells; host or cells: solubilized human platelets
The experiment in a line: peptide affinity column with solubilized human platelets, western blot for talin. It is filed as binding. Conditions: solubilized human platelets, immunoblot; whole talin (220 kD), talin head domain (47 kD).
Excerpt: as §1
Thus, the binding of G13SR2pep (SEQ ID NO:5) to the talin head domain serves as the basis for the ability of G13SR2pep to inhibit α11bβ3 integrin activation and platelet aggregation. As such, peptides or specific compounds fashioned to mimic or modify the switch region interaction with talin, α11bβ3 integrin or other α11bβ3 integrin-associated proteins would have profound effects on thrombosis and other integrin-linked disease processes.

The subject of assay [2] is human platelets. The experiment in a line: human platelet aggregation in platelet rich plasma (PRP). It is filed as cell-based.
Assay [3] has as its system human platelets. The assay is described as above. The following applies: for effect on human platelet aggregation induced by U46619 (TP): 0.5 μM U46619. The class given is cell-based. On the procedure: Trace (a) is control data from human platelet rich plasma (PRP) incubated with 500 μM of the Random Peptide (Myr-Leu-Ile-Arg-Pro-Tyr-Leu-His-Arg-Ala-Thr-Lys-Glu-Gly; SEQ ID NO:6), prior to stimulation with 15 μM of the PAR1 receptor agonist TRAP1. Trace (b) depicts data wherein PRP was treated with 30 μM Myr-G13SR1pep-2 prior to stimulation with 15 μM TRAP1. Trace (c) depicts data wherein PRP was treated with 50 μM Myr-G13SR1pep-2 prior to stimulation with 15 μM TRAP1. Trace (d) is control data showing PRP treated with 500 μM of the Random Peptide (SEQ ID NO:6) prior to stimulation with the 0.5 μM thromboxane receptor agonist U46619. Trace (e) depicts data wherein PRP was treated with 500 μM Myr-G13SR1pep-2 prior to stimulation with 0.5 μM U46619. Trace (f) is control data showing PRP treated with 500 μM of the Random Peptide (SEQ ID NO:6) prior to stimulation with 10 μM of the P2Y1/P2Y12 receptor agonist ADP. […] Trace (h) depicts control data showing PRP treated with 500 μM of the Random Peptide (SEQ ID NO:6) prior to stimulation with 40 μM of the PAR4 receptor agonist TRAP4. Trace (i) depicts data wherein PRP was treated with 500 μM Myr-G13SR1pep-2 prior to stimulation with 40 μM TRAP4.
Trace (a) depicts control data showing PRP treated with 500 μM of the Random Peptide (Myr-Gln-Arg-Ile-Arg-Phe-Cys-Ser-Glu-Gly-Val-Glu-Lys-Gly-His-Trp-Asn-Arg; SEQ ID NO:7) prior to stimulation with 15 μM of the PAR1 receptor agonist TRAP1. Trace (b) depicts data wherein PRP was treated with 500 μM Myr-GqSR2pep prior to stimulation with 15 μM TRAP1. Trace (c) is control data showing PRP treated with 500 μM Random Peptide (SEQ ID NO:7) prior to stimulation with the 0.5 μM of the thromboxane receptor agonist U46619. Trace (d) depicts data wherein PRP was treated with 50 μM Myr-GqSR2pep, prior to stimulation with 0.5 μM U46619. Trace (e) depicts data wherein PRP was treated with 150 μM Myr-GqSR2pep prior to stimulation with 0.5 μM U46619. Trace (f) is control data showing PRP treated with 500 μM Random Peptide (SEQ ID NO:7) prior to stimulation with 10 μM ADP. Trace (g) depicts data wherein PRP was treated with 50 μM Myr-GqSR2pep prior to stimulation with 10 μM ADP. Trace (h) depicts data wherein PRP was treated with 150 μM Myr-GqSR2pep prior to stimulation with 10 μM ADP. Trace (i) is control data showing PRP treated with 500 μM Random Peptide (SEQ ID NO:7) prior to stimulation with 40 μM of the PAR4 receptor agonist TRAP4. Trace (j) depicts data wherein PRP was treated with 150 μM Myr-GqSR2pep prior to stimulation with 40 μM of TRAP4.
Trace (a) is control data showing PRP treated with 500 μM of the Random Peptide (Myr-Gly-Ile-His-Glu-Trp-Glu-Val-Gly-Ser-Phe-Lys-Gly-Cys-Gln-Lys-Arg-Arg; SEQ ID NO:8) prior to stimulation with 15 μM of the PAR1 receptor agonist TRAP1. Trace (b) depicts data wherein PRP was treated with 500 μM Myr-GiSR2pep prior to stimulation with 15 μM TRAP1. Trace (c) is control data showing PRP treated with 500 μM Random Peptide (SEQ ID NO:8) prior to stimulation with the 0.5 μM of the thromboxane receptor agonist U46619. Trace (d) depicts data wherein PRP was treated with 500 μM Myr-GiSR2pep prior to stimulation with 0.5 μM U46619. Trace (e) is control data showing PRP treated with 500 μM Random Peptide (SEQ ID NO:8) prior to stimulation with 10 μM ADP. Trace (f) depicts data wherein PRP was treated with 150 μM Myr-GiSR2pep, prior to stimulation with 10 μM ADP. Trace (g) depicts data wherein PRP was treated with 500 μM Myr-GiSR2pep prior to stimulation with 10 μM ADP. Trace (h) is control data showing PRP treated with 500 μM Random Peptide prior (SEQ ID NO:8) to stimulation with 40 μM of the PAR4 receptor agonist TRAP4. Trace (i) depicts data wherein PRP was treated with 500 μM Myr-GiSR2pep prior to stimulation with 40 μM of TRAP4 […]

The subject of assay [4] is α11bβ3 integrin. The experiment in a line: platelet α11bβ3 integrin activation, FITC-PAC1 antibody binding by flow cytometry. The class given is cell-based, human. Conditions: single substitution Arg232 to Ala versus parent G13SR2pep. The protocol: The platelet count in human PRP was adjusted to 1×10^6 platelets/ml. The platelets were then labeled with FITC-conjugated PAC1 antibody against activated α11bβ3 integrin, and the samples were analyzed by flow cytometry in a Beckman Coulter CyAn II Flow Cytometer. Trace (a) depicts resting platelets labeled with FITC-PAC-1 antibody. Trace (b) depicts platelets stimulated with 0.5 μM U46619 and labeled with FITC-PAC1 antibody. Trace (c) depicts platelets incubated with 500 μM of the Random Peptide (SEQ ID NO:9), followed by 0.5 μM U46619 stimulation and FITC-PAC1 labeling. Trace (d) depicts platelets incubated with 150 μM of the G13SR2pep, followed by 0.5 μM U46619 stimulation and FITC-PAC1 labeling.
Subsequent experiments examined the effect of G13SR2pep, (SEQ ID NO:5) on human platelet α11bβ3 integrin activation as measured by FITC-PAC-1 antibody binding.

Where [5] appears, read: PRP, 500 μM peptide, 15 μM TRAP1.
The mark [6] stands for this setting: PRP, 500 μM peptide, 40 μM TRAP4.

T3 sequence (Q9Y490 1-433): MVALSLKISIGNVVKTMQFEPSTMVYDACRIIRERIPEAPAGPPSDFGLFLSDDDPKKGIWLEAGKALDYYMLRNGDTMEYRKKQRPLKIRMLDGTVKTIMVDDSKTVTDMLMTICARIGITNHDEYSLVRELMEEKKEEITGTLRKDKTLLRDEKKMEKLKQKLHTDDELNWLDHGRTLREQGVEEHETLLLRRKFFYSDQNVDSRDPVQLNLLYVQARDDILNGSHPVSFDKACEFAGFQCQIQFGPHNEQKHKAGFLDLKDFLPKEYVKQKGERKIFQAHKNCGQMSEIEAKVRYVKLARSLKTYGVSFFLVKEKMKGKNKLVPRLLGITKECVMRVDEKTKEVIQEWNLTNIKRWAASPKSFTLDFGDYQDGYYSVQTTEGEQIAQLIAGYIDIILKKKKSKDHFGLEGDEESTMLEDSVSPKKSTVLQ

Regarding `CC(=O)Oc1ccccc1C(=O)O` [ASA, aspirin, reference compound], the bleeding time result in the assay on CD1 mice is reported as “increase”.

As to “GFDEWEVSFKGCQRRSR [Random Peptide (SEQ ID NO:9), random peptide control for G13SR2pep, reference compound]”, in the assay with kindlin-3, the “kindlin 3 in affinity column eluate” value was “did not reveal the presence”. Moreover, the “α11bβ3 in affinity column eluate (interaction with peptide)” value with α11bβ3 integrin [1] is “did not reveal the presence”. Also, the “talin in affinity column eluate” value with talin is given as “did not reveal the presence”. For the same compound, the “inhibition of human platelet aggregation stimulated by U46619” value with human platelets [2] (PRP, 75-150 μM G13SR2pep (Random Peptide 500 μM), 0.5 μM U46619) is reported as “without effect”. Further, the “inhibition of human platelet aggregation stimulated by ADP” value in the assay with human platelets [2] (PRP, 75-150 μM G13SR2pep (Random Peptide 500 μM), 10 μM ADP) is listed as “without effect”. Moreover, the “inhibition of human platelet aggregation stimulated by TRAP1” value in the assay with human platelets [2] (PRP, 75-150 μM G13SR2pep (Random Peptide 500 μM), 15 μM TRAP1) is “without effect”. Besides, the “inhibition of human platelet aggregation stimulated by TRAP4” value with human platelets [2] (PRP, 75-150 μM G13SR2pep (Random Peptide 500 μM), 50 μM TRAP4) was “without effect”.

Take “Myr-Leu-Leu-Ala-Arg-Arg-Pro-Thr-Ala-Gly-Ile-His-Glu-Tyr (Myristoyl-LLARRPTAGIHEY) [Myr-G13SR1pep-2, myristoylated Gα13 switch region 1 peptide, Lys changed to Ala]”: the “effect on human platelet aggregation induced by U46619 (TP)” value with human platelets [3] (PRP, 500 μM peptide) was “no measurable effect”. Also, in the assay with human platelets [3] (PRP, 500 μM peptide, 10 μM ADP), the “effect on human platelet aggregation induced by ADP” value is given as “no measurable effect”. In addition, the “effect on human platelet aggregation induced by TRAP1 (PAR1)” value (“effect … (PAR1)” for short) with human platelets [3] (setting [5]) was “no measurable effect”. In addition, the “effect on human platelet aggregation induced by TRAP4 (PAR4)” value in the assay on human platelets [3] (setting [6]) is given as “no measurable effect”. In the assay with human platelets [3] (PRP, 30-50 μM peptide, 15 μM TRAP1), the “inhibition of PAR1-induced human platelet aggregation” value is given as “progressive inhibition; also recorded: blocked”. In the assay with human platelets [3] (human PRP), the “potency relative to the original peptide (Myr-G13SR1pep) for inhibition of PAR1-induced human platelet aggregation” value was “ten-fold increased potency”. Besides, in the assay with CD1 mice, the bleeding time result is reported as “increased bleeding times; also recorded: substantially increases”.

Take “Myr-Val-Gly-Gly-Gln-Arg-Ser-Glu-Arg-Arg-Lys-Trp-Ile-His-Cys-Phe-Glu-Asn (Myristoyl-VGGQRSERRKWIHCFEN) [Myr-GqSR2pep, myristoylated Gαq switch region 2 peptide]”: in the assay on human platelets [3] (setting [5]), the “effect … (PAR1)” value is “ineffective”. Moreover, the “inhibition of human platelet aggregation induced by PAR4 receptors” value in the assay on human platelets [3] (PRP, 50-150 μM peptide, 40 μM TRAP4) is listed as “dose-dependent inhibition”. Also, the “inhibition of human platelet aggregation induced by TP receptors” value in the assay on human platelets [2] (PRP, 50-150 μM peptide, 0.5 μM U46619) is given as “dose-dependent inhibition”. The “inhibition of human platelet aggregation induced by ADP receptors” value with human platelets [2] (PRP, 50-150 μM peptide, 10 μM ADP) was “dose-dependent inhibition”.

For “Myr-Val-Gly-Gly-Gln-Arg-Ser-Glu-Arg-Lys-Lys-Trp-Ile-His-Cys-Phe-Glu-Gly (Myristoyl-VGGQRSERKKWIHCFEG) [Myr-Gi SR2pep, myristoylated Gαi switch region 2 peptide]”, the “effect on human platelet aggregation induced by U46619 (TP)” value in the assay with human platelets [3] (PRP, 500 μM peptide) was “without affecting”. For the same compound, in the assay on human platelets [3] (setting [5]), the “effect … (PAR1)” value is recorded as “without affecting”. Also, in the assay with human platelets [3] (setting [6]), the “effect on human platelet aggregation induced by TRAP4 (PAR4)” value was “without affecting”. The “inhibition of ADP-induced aggregation” value in the assay with human platelets [3] (PRP, 150-500 μM peptide, 10 μM ADP) is “dose-dependent (150-500 μM) inhibition”.

As for “RSERKRWFECFD [G13SR2pep-truncated, truncated version of the G13 Switch Region 2 peptide]”, the “inhibition of human platelet aggregation compared with full length G13SR2pep” value with human platelets [2] (PRP, 150 μM peptide, 15 μM TRAP1 or 0.5 μM U46619 (FIG. 5)) is “inhibited human platelet aggregation with the same potency”.

As for “VGGQRSERKAWFECFDS [G13SR2mutant pep, G13SR2pep with single substitution at amino acid 232 from Arg to Ala, reference compound]”, the “ability to block integrin activation” value with α11bβ3 integrin [4] is reported as “completely eliminated the ability”. Also, the “ability to block platelet activation” value in the assay on human platelets [2] (single substitution Arg232 to Ala versus parent G13SR2pep) is reported as “completely eliminated the ability”.
